Data on ten compounds can be found in US12606544B2, “JAK1 selective kinase inhibitor” (DIZAL (JIANGSU) PHARMACEUTICAL CO., LTD., priority 2019, dated 2026).

SMILES strings stand for the structures. pIC50: −log10 of the molar value.

By pIC50 is commonly meant the negative decadic logarithm of the IC50, by convention in mol/L. A word on the microsomal CLint: it is a measure of how fast metabolising enzymes remove a compound, apart from limits set by blood flow. Low readings indicate greater metabolic stability, high ones faster metabolism.

In one data set the target is T1, JAK1 (Homo sapiens, UniProt P23458).
T1 construct: purchased Carna Biosciences
The data set is described as follows: Lance Ultra Kinase Assay, recombinant JAK1. In kind it is biochemical. Conditions: 5 mM ATP. Put shortly: (§1)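 Each recombinant kinase preincubated with or without compound 15 min at room temperature, then reaction started with 5 mM ATP and substrate peptide for 60 min. Stopped with EDTA-containing detection mix; TR-FRET read at ex 320 nm, 665/615 nm emission ratio taken as kinase activity.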

Another data set deals with T2, JAK2 (Homo sapiens, UniProt O60674).
T2 construct: purchased Carna Biosciences
The data set is described as follows: Lance Ultra Kinase Assay, recombinant JAK2. In kind it is biochemical. Conditions: 5 mM ATP. Put shortly: as §1

The target in the next data set is T3, JAK3 (Homo sapiens, UniProt P52333).
T3 construct: purchased Carna Biosciences
T3 sequence (P52333 1-1124): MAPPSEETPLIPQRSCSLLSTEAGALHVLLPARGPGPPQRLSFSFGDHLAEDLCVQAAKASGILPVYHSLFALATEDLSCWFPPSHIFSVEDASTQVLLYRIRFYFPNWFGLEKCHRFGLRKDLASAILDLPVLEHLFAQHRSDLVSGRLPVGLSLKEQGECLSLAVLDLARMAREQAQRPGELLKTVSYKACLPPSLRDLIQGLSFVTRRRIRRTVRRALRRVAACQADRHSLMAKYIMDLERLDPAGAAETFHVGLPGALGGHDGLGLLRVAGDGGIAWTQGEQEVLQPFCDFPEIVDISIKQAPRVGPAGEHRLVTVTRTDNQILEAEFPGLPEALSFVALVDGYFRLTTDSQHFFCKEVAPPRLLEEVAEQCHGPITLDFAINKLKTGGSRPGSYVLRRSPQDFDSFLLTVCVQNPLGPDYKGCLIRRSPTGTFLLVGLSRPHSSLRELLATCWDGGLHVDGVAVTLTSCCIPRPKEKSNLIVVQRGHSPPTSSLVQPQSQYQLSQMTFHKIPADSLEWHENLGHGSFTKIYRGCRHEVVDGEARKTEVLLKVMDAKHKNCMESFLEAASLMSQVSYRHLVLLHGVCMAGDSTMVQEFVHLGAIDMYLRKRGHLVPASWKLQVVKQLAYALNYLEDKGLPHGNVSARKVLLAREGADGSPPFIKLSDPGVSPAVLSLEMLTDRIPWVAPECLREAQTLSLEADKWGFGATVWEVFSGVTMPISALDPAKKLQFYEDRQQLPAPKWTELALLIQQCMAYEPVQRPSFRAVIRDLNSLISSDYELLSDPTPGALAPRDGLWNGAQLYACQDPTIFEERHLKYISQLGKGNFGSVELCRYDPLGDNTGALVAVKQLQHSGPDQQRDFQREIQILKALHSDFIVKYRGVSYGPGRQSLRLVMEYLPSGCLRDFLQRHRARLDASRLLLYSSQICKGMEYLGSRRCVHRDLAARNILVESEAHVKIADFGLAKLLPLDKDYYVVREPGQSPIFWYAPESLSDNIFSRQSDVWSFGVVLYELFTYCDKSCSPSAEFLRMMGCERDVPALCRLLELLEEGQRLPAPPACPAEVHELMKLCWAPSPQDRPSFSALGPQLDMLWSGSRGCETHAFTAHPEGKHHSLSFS
The data set is described as follows: Lance Ultra Kinase Assay, recombinant JAK3. In kind it is biochemical. Conditions: 5 mM ATP. The gist of the method:
as §1

Another data set concerns the target T4, TYK2 (Homo sapiens, UniProt P29597).
T4 construct: purchased Carna Biosciences
The data set is described as follows: Lance Ultra Kinase Assay, recombinant TYK2. In kind it is biochemical. Conditions: 5 mM ATP. Put shortly: as §1

The next data set relates to phosphorylation of STAT6. The data set is described as follows: Cellular p-STAT6 assay, IL-13 stimulated THP-1 cells, flow cytometry. Conditions: Homo sapiens, THP-1, THP-1 cells, IL-13 10 ng/ml; read-out: pSTAT6 IC50. In kind it is cell-based. Put shortly:
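THP-1 cells (2×10^5/well, RPMI1640 + 10% FBS) preincubated 60 min at room temperature with compound (1 μM to 0.3 nM), then stimulated 30 min with IL-13 at 10 ng/ml. Fixed, methanol-permeabilized cells stained with PE anti-pSTAT6 and read by flow cytometry; IC50 from dose-response curves.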
(In general: A flow cytometer gives signals particle by particle.)

A short description of data set [1]: Metabolic stability in rat hepatocytes. In kind it is in vitro ADME. Conditions: 1 μM compound, male rat hepatocytes. The method, then: (§2) Rat hepatocytes in male gender and human liver microsome were obtained from commercial vendors (e.g., BioreclamationIVT) and stored at −150° C. prior to use.
For metabolic stability assay with rat heptatocytes, vials of cryopreserved hepatocytes or microsome were removed from storage, ensured that vials remain at cryogenic temperatures. 1 μM of each test compound (in Acetonitrile; 0.01% DMSO) was incubated with 250 μL of hepatocyte cells (1×10^6 cells/ml) in a 96 deep well plate. […] 40 μL of supernatant was diluted to 200 μL with pure water and analyzed using LC-MS/MS.
In vitro hepatocyte clearance was estimated based on determination of elimination half-life (T1/2) of compounds disappearance from their initial concentrations. Peak area ratios of each compound (test or control) to IS was calculated. Ln (% Control) versus Incubation Time (min) curve was plotted, and the slope of a linear fitting line was calculated. Drug elimination rate constant k (min−1), T1/2 (min), and in vitro intrinsic clearance CLint (μL/min/E6) was calculated according to the following equations: k=−slope T1/2=0.693/k CLint=k/Chep Where Chep (cells×μL^−1) is the cell concentration in the incubation system.

Data set [2] can be described thus: Metabolic stability in human liver microsome. In kind it is in vitro ADME. Conditions: human, pooled human liver microsomes, pH 7.4, 1 μM compound, 1 mg/mL microsomes, NADPH. The method, then:
as §2
For metabolic stability assay with human liver microsome, 1 μM of each test compound was incubated with 1 mg/mL of microsomes (Pooled HLM with 20 mg/ml protein cone) at 37° C. in 250 μL of buffer (100 mM phosphate buffer, pH-7.4) containing 1 mM NADPH solution. […] was quenched with 5 volumes chilled acetonitrile at different time points 0, 0.5, 5, 10, 15, 20 and 30 min in a fresh 96 well plate. The quench plate was centrifuged at 4000 rpm for 15 min. 40 μL of supernatant was diluted to 200 μL with pure water and analyzed using LC-MS/MS. […]
Background: Liver microsomes are vesicles of endoplasmic reticulum, rich in cytochrome P450 enzymes.

T1 sequence (P23458 whole entry): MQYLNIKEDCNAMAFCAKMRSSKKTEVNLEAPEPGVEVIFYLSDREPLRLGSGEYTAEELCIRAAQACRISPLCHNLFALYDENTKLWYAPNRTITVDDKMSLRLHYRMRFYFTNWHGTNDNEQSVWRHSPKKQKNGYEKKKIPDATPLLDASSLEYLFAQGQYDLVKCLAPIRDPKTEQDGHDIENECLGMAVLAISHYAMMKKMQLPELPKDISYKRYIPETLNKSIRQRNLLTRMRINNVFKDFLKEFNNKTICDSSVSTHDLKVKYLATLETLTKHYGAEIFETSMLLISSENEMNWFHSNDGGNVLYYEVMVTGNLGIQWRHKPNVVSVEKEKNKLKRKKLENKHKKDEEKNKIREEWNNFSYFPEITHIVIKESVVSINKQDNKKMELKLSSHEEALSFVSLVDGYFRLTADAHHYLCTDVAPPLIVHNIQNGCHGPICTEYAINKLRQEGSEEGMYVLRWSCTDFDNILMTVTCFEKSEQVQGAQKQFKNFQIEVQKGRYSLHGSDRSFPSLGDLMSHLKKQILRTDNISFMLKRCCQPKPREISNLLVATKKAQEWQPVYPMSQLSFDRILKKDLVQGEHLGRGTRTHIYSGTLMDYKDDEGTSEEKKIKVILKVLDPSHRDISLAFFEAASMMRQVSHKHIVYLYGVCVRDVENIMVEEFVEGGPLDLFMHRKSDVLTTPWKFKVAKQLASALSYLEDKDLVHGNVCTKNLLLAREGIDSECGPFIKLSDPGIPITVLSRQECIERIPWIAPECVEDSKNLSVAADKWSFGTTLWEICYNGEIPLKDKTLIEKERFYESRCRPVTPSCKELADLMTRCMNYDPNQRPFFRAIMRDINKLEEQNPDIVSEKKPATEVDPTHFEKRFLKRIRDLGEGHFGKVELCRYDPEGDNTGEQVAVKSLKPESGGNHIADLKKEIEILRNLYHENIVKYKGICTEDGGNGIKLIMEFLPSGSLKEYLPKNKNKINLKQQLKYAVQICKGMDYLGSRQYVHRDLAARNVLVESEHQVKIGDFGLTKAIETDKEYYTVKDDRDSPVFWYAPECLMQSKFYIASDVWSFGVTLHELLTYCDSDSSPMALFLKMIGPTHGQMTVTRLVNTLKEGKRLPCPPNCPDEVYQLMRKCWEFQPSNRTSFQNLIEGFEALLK
T2 sequence (O60674 whole entry): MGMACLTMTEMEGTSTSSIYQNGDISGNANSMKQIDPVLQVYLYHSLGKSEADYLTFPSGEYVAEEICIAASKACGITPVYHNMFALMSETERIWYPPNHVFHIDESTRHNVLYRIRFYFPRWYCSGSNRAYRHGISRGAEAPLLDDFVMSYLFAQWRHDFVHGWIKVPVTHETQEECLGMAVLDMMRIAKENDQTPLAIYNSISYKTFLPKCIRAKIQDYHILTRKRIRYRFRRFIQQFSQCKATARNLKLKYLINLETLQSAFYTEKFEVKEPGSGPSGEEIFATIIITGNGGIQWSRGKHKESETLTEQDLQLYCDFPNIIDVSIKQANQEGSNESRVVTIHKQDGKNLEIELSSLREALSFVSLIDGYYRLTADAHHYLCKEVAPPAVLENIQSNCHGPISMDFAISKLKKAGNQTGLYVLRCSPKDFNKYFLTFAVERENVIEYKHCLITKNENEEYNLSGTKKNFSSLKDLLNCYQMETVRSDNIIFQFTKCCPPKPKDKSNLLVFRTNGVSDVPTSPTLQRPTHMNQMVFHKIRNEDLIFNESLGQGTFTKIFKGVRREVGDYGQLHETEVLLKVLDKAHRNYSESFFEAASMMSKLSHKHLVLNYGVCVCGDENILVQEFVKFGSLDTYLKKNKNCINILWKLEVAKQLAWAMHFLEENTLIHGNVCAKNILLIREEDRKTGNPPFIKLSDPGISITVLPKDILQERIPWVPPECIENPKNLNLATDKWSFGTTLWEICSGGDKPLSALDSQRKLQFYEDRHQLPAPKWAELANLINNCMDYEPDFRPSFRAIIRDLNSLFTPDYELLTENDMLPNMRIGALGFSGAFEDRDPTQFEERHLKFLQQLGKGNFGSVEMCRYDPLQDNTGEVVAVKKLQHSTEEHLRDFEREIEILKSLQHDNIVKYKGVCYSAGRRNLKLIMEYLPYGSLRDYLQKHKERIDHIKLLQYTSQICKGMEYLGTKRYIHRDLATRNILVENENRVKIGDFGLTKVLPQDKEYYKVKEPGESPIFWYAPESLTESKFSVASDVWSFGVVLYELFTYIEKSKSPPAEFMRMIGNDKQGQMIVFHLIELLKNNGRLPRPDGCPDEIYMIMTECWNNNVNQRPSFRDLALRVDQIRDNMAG
T4 sequence (P29597 whole entry): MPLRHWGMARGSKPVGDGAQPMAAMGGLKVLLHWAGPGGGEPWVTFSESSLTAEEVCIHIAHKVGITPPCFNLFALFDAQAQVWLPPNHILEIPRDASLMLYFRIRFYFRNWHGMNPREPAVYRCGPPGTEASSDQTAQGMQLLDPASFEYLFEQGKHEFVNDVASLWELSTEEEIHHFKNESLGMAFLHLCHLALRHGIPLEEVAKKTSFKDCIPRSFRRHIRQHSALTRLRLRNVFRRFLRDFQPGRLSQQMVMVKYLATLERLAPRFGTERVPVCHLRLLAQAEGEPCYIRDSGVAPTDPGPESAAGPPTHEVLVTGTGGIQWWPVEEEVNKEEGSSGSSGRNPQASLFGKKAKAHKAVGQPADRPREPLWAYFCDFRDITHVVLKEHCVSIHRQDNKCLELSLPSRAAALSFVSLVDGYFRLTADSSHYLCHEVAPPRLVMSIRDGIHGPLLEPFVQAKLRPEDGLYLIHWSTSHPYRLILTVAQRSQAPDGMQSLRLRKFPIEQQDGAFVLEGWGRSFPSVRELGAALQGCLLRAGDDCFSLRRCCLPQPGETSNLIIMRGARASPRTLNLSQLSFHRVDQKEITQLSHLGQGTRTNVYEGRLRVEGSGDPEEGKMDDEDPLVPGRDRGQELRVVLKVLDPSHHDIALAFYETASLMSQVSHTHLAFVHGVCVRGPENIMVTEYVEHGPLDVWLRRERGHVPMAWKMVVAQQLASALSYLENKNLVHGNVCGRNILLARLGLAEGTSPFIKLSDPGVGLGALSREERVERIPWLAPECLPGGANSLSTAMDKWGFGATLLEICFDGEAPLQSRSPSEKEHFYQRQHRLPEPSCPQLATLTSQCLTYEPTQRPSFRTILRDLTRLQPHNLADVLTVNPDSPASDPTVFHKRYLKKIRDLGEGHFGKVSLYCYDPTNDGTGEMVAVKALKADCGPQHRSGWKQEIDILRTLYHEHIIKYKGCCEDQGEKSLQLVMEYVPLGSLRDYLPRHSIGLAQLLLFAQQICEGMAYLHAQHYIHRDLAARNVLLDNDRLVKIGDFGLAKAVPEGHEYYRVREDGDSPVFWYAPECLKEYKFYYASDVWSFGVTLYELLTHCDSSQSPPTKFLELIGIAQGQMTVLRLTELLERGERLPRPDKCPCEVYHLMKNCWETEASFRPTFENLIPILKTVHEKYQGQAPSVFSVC

Regarding `COC[C@H](C(=O)Nc1cccc2c(-c3nc(Nc4ccc(C(=O)OC)nc4)ncc3F)c[nH]c12)N1CCN(C)CC1` [Example 12, methyl (R)-5-((5-fluoro-4-(7-(3-methoxy-2-(4-methylpiperazin-1-yl)propanamido)-1H-indol-3-yl)pyrimidin-2-yl)amino)picolinate], the negative logarithm of the IC50 (pIC50) at JAK1 is 9.77; on JAK2 it was 6.33; on JAK3, less than 5.00; at TYK2, 5.42; in the data set on phosphorylation of STAT6, 8.14. Also, in data set [1], the “Rat Hepatocyte CLint” value was 226.4 μL/min/10^6 cells. In data set [2], this compound returned a microsomal CLint at 1 μM greater than 300 µL/min/mg.
As for `COC[C@H](C(=O)Nc1cccc2c(-c3nc(Nc4ccc5cn[nH]c5c4)ncc3F)c[nH]c12)N1CCN(C)CC1` [Example 13, (R)-N-(3-(2-((1H-indazol-6-yl)amino)-5-fluoropyrimidin-4-yl)-1H-indol-7-yl)-3-methoxy-2-(4-methylpiperazin-1-yl)propanamide], the pIC50 is 9.48 at JAK1; 7.06 on JAK2; 5.05 on JAK3; 5.86 on TYK2; 8.14 with phosphorylation of STAT6. In addition, the “Rat Hepatocyte CLint” value in data set [1] is 5.5 μL/min/10^6 cells. Besides, in data set [2], the microsomal CLint at 1 μM is 83.1 µL/min/mg.
`COC[C@H](C(=O)Nc1cccc2c(-c3nc(Nc4ccnc(CCC(=O)OC)c4)ncc3F)c[nH]c12)N1CCN(C)CC1` [Example 15, methyl (R)-3-(4-((5-fluoro-4-(7-(3-methoxy-2-(4-methylpiperazin-1-yl)propanamido)-1H-indol-3-yl)pyrimidin-2-yl)amino)pyridin-2-yl)propanoate]: the pIC50 on JAK1 is 9.72; at JAK2 it was 7.70; at JAK3 it was less than 5.00; on TYK2 it was 5.84; in the data set with phosphorylation of STAT6, 8.14. Besides, the “Rat Hepatocyte CLint” value in data set [1] is given as 68.0 μL/min/10^6 cells. In data set [2], this compound showed a microsomal CLint at 1 μM greater than 300 µL/min/mg.
As to `COC[C@H](C(=O)Nc1cccc2c(-c3nc(Nc4ccc(OCCO)nc4)ncc3F)c[nH]c12)N1CCN(C)CC1` [Example 16, (R)-N-(3-(5-fluoro-2-((6-(2-hydroxyethoxy)pyridin-3-yl)amino)pyrimidin-4-yl)-1H-indol-7-yl)-3-methoxy-2-(4-methylpiperazin-1-yl)propanamide], the pIC50 was 9.44 on JAK1; 6.86 at JAK2; less than 5.00 on JAK3; 5.70 on TYK2; 8.13 in the data set with phosphorylation of STAT6. Also, in data set [1], the “Rat Hepatocyte CLint” value is 42.1 μL/min/10^6 cells. In data set [2], this compound returned a microsomal CLint at 1 μM of 3 µL/min/mg.
In the case of `COC[C@H](C(=O)Nc1cccc2c(-c3nc(Nc4ccc5c(C)n[nH]c5c4)ncc3F)c[nH]c12)N1CCN(C)CC1` [Example 17, (R)-N-(3-(5-fluoro-2-((3-methyl-1H-indazol-6-yl)amino)pyrimidin-4-yl)-1H-indol-7-yl)-3-methoxy-2-(4-methylpiperazin-1-yl)propanamide], the pIC50 is 9.74 at JAK1; 7.37 at JAK2; 5.11 on JAK3; 5.92 on TYK2; 8.12 in the data set on phosphorylation of STAT6. In addition, the “Rat Hepatocyte CLint” value in data set [1] was determined as 4.5 μL/min/10^6 cells. This compound also had a microsomal CLint at 1 μM in data set [2] of 57.2 µL/min/mg.
As for `COC[C@H](C(=O)Nc1cccc2c(-c3nc(Nc4ccc5c(c4)C(=O)NCC5)ncc3F)c[nH]c12)N1CCN(C)CC1` [Example 35, (R)-N-(3-(5-fluoro-2-((1-oxo-1,2,3,4-tetrahydroisoquinolin-7-yl)amino)pyrimidin-4-yl)-1H-indol-7-yl)-3-methoxy-2-(4-methylpiperazin-1-yl)propanamide], the pIC50 was 9.59 on JAK1; 6.70 at JAK2; less than 5.00 at JAK3; 5.69 at TYK2; 7.95 in the data set with phosphorylation of STAT6. In addition, the “Rat Hepatocyte CLint” value in data set [1] turned out to be 2.2 μL/min/10^6 cells. This compound yielded a microsomal CLint at 1 μM in data set [2] of 9.2 µL/min/mg.
In the case of `CCOC(=O)c1ccc(Nc2ncc(F)c(-c3c[nH]c4c(NC(=O)[C@@H](COC)N5CCN(C)CC5)cccc34)n2)cn1` [Example 36, ethyl (R)-5-((5-fluoro-4-(7-(3-methoxy-2-(4-methylpiperazin-1-yl)propanamido)-1H-indol-3-yl)pyrimidin-2-yl)amino)picolinate], the pIC50 on JAK1 is 9.54; at JAK2, 6.31; on JAK3, less than 5.00; on TYK2, 5.34; in the data set with phosphorylation of STAT6, 7.94. Also, the “Rat Hepatocyte CLint” value in data set [1] is reported as greater than 300 μL/min/10^6 cells. For the same compound, in data set [2], the microsomal CLint at 1 μM was greater than 300 µL/min/mg.
Take `COC[C@H](C(=O)Nc1cccc2c(-c3nc(Nc4ccc5c(c4)NC(=O)C5)ncc3F)c[nH]c12)N1CCN(C)CC1` [Example 37, (R)-N-(3-(5-fluoro-2-((2-oxoindolin-6-yl)amino)pyrimidin-4-yl)-1H-indol-7-yl)-3-methoxy-2-(4-methylpiperazin-1-yl)propanamide]: the pIC50 is 9.68 on JAK1; 7.17 at JAK2; 5.32 on JAK3; 6.00 at TYK2; 7.94 with phosphorylation of STAT6. Moreover, the “Rat Hepatocyte CLint” value in data set [1] is given as 6.3 μL/min/10^6 cells. The microsomal CLint at 1 μM in data set [2] stood at 11.7 µL/min/mg.
With `COC[C@H](C(=O)Nc1cccc2c(-c3nc(Nc4ccc5nc[nH]c5c4)ncc3F)c[nH]c12)N1CCN(C)CC1` [Example 45, (R)-N-(3-(2-((1H-benzo[d]imidazol-6-yl)amino)-5-fluoropyrimidin-4-yl)-1H-indol-7-yl)-3-methoxy-2-(4-methylpiperazin-1-yl)propanamide], the pIC50 is 9.85 on JAK1; 6.88 on JAK2; less than 5.00 on JAK3; 5.89 on TYK2; 7.87 in the data set on phosphorylation of STAT6. Besides, the “Rat Hepatocyte CLint” value in data set [1] is 2.7 μL/min/10^6 cells. In data set [2], this compound showed an intrinsic metabolic clearance (microsomal CLint) at 1 μM of 45.2 µL/min/mg.
Consider `COC[C@H](C(=O)Nc1cccc2c(-c3nc(Nc4ccc(NC(C)=O)nc4)ncc3F)c[nH]c12)N1CCN(C)CC1` [Example 48, (R)-N-(3-(2-((6-acetamidopyridin-3-yl)amino)-5-fluoropyrimidin-4-yl)-1H-indol-7-yl)-3-methoxy-2-(4-methylpiperazin-1-yl)propanamide], for which the pIC50 at JAK1 was 9.57; on JAK2 it was 6.42; on JAK3, less than 5.00; on TYK2, 5.77; in the data set on phosphorylation of STAT6 it was 7.85. The “Rat Hepatocyte CLint” value in data set [1] was determined as 1.6 μL/min/10^6 cells. In data set [2], the microsomal CLint at 1 μM worked out at 69.1 µL/min/mg.
